The structures appear in SMILES notation.

What is called EC50 is the concentration that produces a half-maximal response.

This experiment deals with Ras-related protein Rab-7a (dog), GTP binding. The experiment is described as follows: blockers of fluorescent GTP binding to Rab7 – biochemical, wildtype, multiplex bead flow cytometry, dose response (AID 1336). The note with it: bead-based flow cytometry. (In general: Flow cytometry measures light scatter and fluorescence of single cells or particles in a stream.)
For the compound `Cc1cc(C(=O)O)sc1CNCc1ccccc1Cl`, the EC50 was 423 nM.

As for `O=C(O)/C=C/c1cn(Cc2ccccc2)nc1-c1cccs1`, the EC50 is 2350 nM.

`COC(=O)c1cccnc1SCCc1ccccc1`: the EC50 was 14200 nM.

On to `O=C(O)c1ccccc1NCCc1ccc(Cl)cc1`, for which the EC50 was 339 nM.

Consider `O=C1CN=C(c2ccccc2)c2cc(Br)ccc2N1Cc1cc(=O)n2ccccc2n1`, for which the EC50 was 2700 nM.

For the compound `CCOc1ccc(/C=C2\SC(N3CCc4ccccc4C3)=NC2=O)cc1`, the EC50 is 11500 nM.

Take `O=C(O)c1ccccc1Sc1ncnc2sc3c(c12)CCC3`: the EC50 is 2620 nM.

Take `CC(C)C(NCc1c(Cl)cccc1Cl)C(=O)O` (configuration not stated): the EC50 is 2230 nM.

On to `Cc1nn(Cc2ccccc2)c(Cl)c1C(=O)O`, for which the 50% effective concentration (EC50) is 3540 nM.

Consider `Cc1cc(C(=O)Oc2ccccc2C(=O)O)c(C)o1`, for which the EC50 is 810 nM.

Consider `N#Cc1c(-c2ccccc2)nc(SCC(=O)Nc2ccccc2)[nH]c1=O`, for which the EC50 was 6420 nM.

With `Cc1sc(-n2c(C)cc(C=C3C(=O)NC(=O)NC3=O)c2C)c(C#N)c1C`, the 50% effective concentration (EC50) was 28900 nM.
